From patent US20070149481A1, “N,n-bridged, nitrogen-substituted carbacyclic indolocarbazoles as protein kinase inhibitors” (priority 2002, published 2007)
Values joined by “and” are separate entries in the source; they are usually repeats but may differ in a detail not shown here. Identical values can stand only once.

Legend:
[1] = Solubility of free base NAD0241 and its hydrochloride salt in 99/1 water/DMSO; assay type: physicochemical; settings: 18 hours equilibration at room temperature, duplicate experiments
Procedure: Stock solutions of NAD0241 (100 mM) and of its hydrochloride salt ([…]) in DMSO (UV-grade) were prepared freshly before the experiment and further diluted to a final concentration of 10 mM. These stock solutions in 100% DMSO were diluted with water (UV grade) to provide five 99/1 water/DMSO samples with varying concentrations of the compound (1000, 500, 100, 50 and 10 μM).
Each sample was thoroughly mixed by rigorous vortexing (30 seconds) followed by equilibration for 18 hours at room temperature. A […] for each sample was transferred into 1.5 mL polypropylene tubes and centrifuged for 30 minutes at room temperature at 16000 g in a fixed angle tabletop centrifuge (Heraeus Biofuge pico equipped with #3325 rotor). The supernatant was pipetted into a quartz glass cuvette and UV-absorption (322 nm) was measured in a UV spectrophotometer (Varian Cary 50). Each experiment was run in duplicate.

[2] = tested on: PKC (rat brain); assay: Protein Kinase C inhibition assay (PKC); assay type: biochemical; settings: 10 μM compound
Procedure: (§1) The ERK2 kinase activity assay utilizes a radioactivity-based format in a 96-well PCR plate with radioactive readout. The ERK2 activity was assayed in a 25 μL assay mixture containing 25 mM HEPES (pH 7.0), 250 μM ATP, 1 mM MgCl2, 1 mM DTT, 2% DMSO, 150 ng/mL Myelin Basic Protein (MBP, Sigma M-1891), and 13.6 ng/mL His tagged ERK2 (specific activity=38.1 nmol/min*mg). Compounds were screened for inhibition of the ERK2 kinase activity at a concentration of 10 μM. The kinase reaction was allowed to proceed at 37° C. for 30 minutes, then reaction was stopped by the addition of 5 μl of 0.5M EDTA (pH 8). 15 μL of each solution were then spotted onto the corresponding square of a filtermat (8×12 glassfibre mat 90×120 mm, PE-Wallac 1450-421). The filtermat was allowed to dry and washed once with 10% TCA, 2% PPA, 500 mM NaCl each for 30 minutes at rt. Two further washings in 10% TCA and 2% PPA for 30 minutes were performed, then a final 30 minute wash in 99% EtOH at rt was done and the filtermat was air dried. The dry filtermat was then placed in a sample bag with a Meltilex sheet (Melt-on scintillator sheets 73×109 mm, PE-Wallac 1450-441 for filtermat A) over the filtermat. The bag was trimmed to fit into the microplate heatsealer (PE-Wallac 1495-021). The heatsealer is used to melt the Meltilex on the filtermat. The bag containing the filtermat and the melted Meltilex was then placed into a filter cassette and counted using the Microbeta Jet Scintillation and Luminescence Counter PE-Wallac 1450.
The PKC kinase activity assay utilizes a radioactivity-based format in a 96-well PCR plate with radioactive readout. The PKC activity was assayed in a 25 μL assay mixture containing 25 mM HEPES (pH 7.0), 250 μM ATP, 10 mM MgCl2, 1 mM DTT, 1 mM EDTA (pH 8), 2 mM CaCl2, 2% DMSO, 250 ng/mL Histone H1 (Roche 1 004 875), and 165 ng/mL PKC (rat brain, Calbiochem 539494, specific activity=1600 nmol/min*mg). Compounds were screened for inhibition of the PKC kinase activity at a concentration of 10 μM. The kinase reaction was allowed to proceed at 37° C. for 30 minutes, then the reaction was stopped by addition of 5 μL of 0.5M EDTA (pH 8). The remainder of the protocol is identical to the one reported for ERK2.

[3] = biological target: T1, PKA (catalytic subunit, bovine heart) (Bos taurus, UniProt P00517); assay: Protein Kinase A inhibition assay (PKA); assay type: biochemical; settings: 10 μM compound
T1 construct: PKA (catalytic subunit, bovine heart, Calbiochem 539486); purchased Calbiochem 539486; host or cells: bovine heart (tissue-derived)
Procedure: as §1
The PKA kinase activity assay utilizes a radioactivity-based format in a 96-well PCR plate with radioactive readout. The PKA activity was assayed in a 25 μL assay mixture containing 25 mM HEPES (pH 7.0), 250 μM ATP, 10 mM MgCl2, 1 mM DTT, 1 mM EDTA (pH 8). 2% DMSO. 250 ng/mL Histone H2B (Roche 223 514), and 2 ng/mL PKA (catalytic subunit, bovine heart, Calbiochem 539486, specific activity=1170 pmol/min*μg). Compounds were screened for inhibition of the PKA kinase activity at a concentration of 10 μM. The kinase reaction was allowed to proceed at 37° C. for 30 minutes, then the reaction was stopped by addition of 5 μL of 0.5M EDTA (pH 8). The remainder of the protocol is identical to the one reported for ERK2.

[4] = biological target: His tagged ERK2 (Homo sapiens, UniProt P28482); assay: Extracellular signal Regulated Kinase 2 inhibition assay (ERK2), radioactive filtermat format; assay type: biochemical; settings: 10 μM compound
Chain of His tagged ERK2 (P28482 whole entry): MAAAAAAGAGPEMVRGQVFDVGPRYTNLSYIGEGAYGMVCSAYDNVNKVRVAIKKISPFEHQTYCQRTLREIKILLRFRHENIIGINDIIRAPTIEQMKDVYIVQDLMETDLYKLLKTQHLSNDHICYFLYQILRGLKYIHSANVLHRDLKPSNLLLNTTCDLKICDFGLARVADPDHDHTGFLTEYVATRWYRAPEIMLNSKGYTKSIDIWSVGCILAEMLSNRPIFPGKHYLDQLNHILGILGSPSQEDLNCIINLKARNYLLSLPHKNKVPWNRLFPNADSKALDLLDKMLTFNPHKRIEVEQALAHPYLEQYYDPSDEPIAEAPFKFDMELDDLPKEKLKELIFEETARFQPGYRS
Procedure: as §1

[5] = biological target: T2, GSK3β (Homo sapiens, UniProt P49841); assay: Glycogen Synthase Kinase 3β inhibition assay (GSK3β); assay type: biochemical; settings: 10 μM compound
T2 construct: purchased Upstate Discovery
T2 sequence (P49841 whole entry, species assumed): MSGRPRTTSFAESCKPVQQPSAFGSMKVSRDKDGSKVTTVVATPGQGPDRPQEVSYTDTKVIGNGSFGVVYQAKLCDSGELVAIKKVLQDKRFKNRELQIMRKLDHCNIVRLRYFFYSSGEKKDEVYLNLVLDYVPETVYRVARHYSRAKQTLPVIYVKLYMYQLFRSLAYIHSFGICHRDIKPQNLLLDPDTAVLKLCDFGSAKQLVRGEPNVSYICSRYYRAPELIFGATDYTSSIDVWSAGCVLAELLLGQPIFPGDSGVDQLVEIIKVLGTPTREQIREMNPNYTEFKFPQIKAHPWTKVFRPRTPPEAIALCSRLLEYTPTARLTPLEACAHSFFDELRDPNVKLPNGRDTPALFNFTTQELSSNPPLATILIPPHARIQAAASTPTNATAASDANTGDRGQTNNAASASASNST
Procedure: The GSK3β kinase activity assay utilizes a radioactivity-based format in a 96-well PCR plate with radioactive readout. The GSK3 β activity was assayed in a 25 μL assay mixture containing 8 mM HEPES (pH 7.0), 250 μM ATP, 0.2 mM EDTA (pH 8), 2% DMSO, 250 ng/mL Myelin Basic Protein (MBP, Sigma M-1891), and 12 ng/mL GSK3β (Upstate Discovery, specific activity=607 nmol/min*GS2 peptide, concentration of 6.05 mg/mL). Compounds were screened for inhibition of the GSK3β kinase activity at a concentration of 10 μM. The kinase reaction was allowed to proceed at 37° C. for 30 minutes, then the reaction was stopped by addition of 5 μL of 0.5M EDTA (pH 8).

solubility limit in water containing 1% DMSO [1]	% Inhibition PKC [2] [%]	% Inhibition PKA [3] [%]	% Inhibition ERK2 [4] [%]	% Inhibition GSK3β [5]	inhibition at 10 µM [3] [%]	inhibition at 10 µM [4] [%]	inhibition at 10 µM [5] [%]	SMILES
170 mgL^−1 and 214 mgL^−1	–	–	–	–	–	–	–	Cl.NC(=O)C1(N)CC2CC1n1c3ccccc3c3c4c(c5c6ccccc6n2c5c31)C(=O)NC4=O (stereo not drawn) [NAD0241-hydrochloride salt]
–	28.18	10.67	28.09	NA (NA = <10% inhibition)	–	–	–	COc1ccc(CN2C(=O)c3c(c4c5ccccc5n5c4c4c3c3ccccc3n4C3CC(N4CCCCC4)C5C3)C2=O)cc1 (stereo not drawn) [Compound 24]
–	88.68	–	–	–	79.8	94.6	96.9	[N-]=[N+]=NC1C2CC([C@H]1O)n1c3ccccc3c3c4c(c5c6ccccc6n2c5c31)C(=O)NC4=O (mixture of isomers) [Compound 15]
–	49.33	23.81	44.03	72.20%	–	–	–	N#CC1(NC(=O)C(F)(F)F)CC2CC1n1c3ccccc3c3c4c(c5c6ccccc6n2c5c31)C(=O)NC4=O (stereo not drawn) [Compound 32]
–	70.41	27.53	53.66	72.56%	–	–	–	O=C1NC(=O)c2c1c1c3ccccc3n3c1c1c2c2ccccc2n1C1CC3CC1NCc1ccccc1 (stereo not drawn) [Compound 23]
–	95.94	–	–	–	90.5	93.6	99.2	N[C@@]1(C(=O)NCCO)CC2CC1n1c3ccccc3c3c4c(c5c6ccccc6n2c5c31)C(=O)NC4=O (mixture of isomers) [Compound 11]
